Source: patent US6413974B1, “6,9,-disubstituted 2-[trans-(4-aminocyclohexyl) amino] purines” (Aventis Pharmaceuticals Inc., priority 1998, dated 2002)
Values joined by “and” are separate entries in the source; they are usually repeats but may differ in a detail not shown here. Equal entries are not always repeated. Structures can show the parent of a compound that is named as a salt. Where two headings read alike, the source gives them in different places.

Columns and labels:
[1] = target: T1, cdk4/cyclin D1 (Homo sapiens, UniProt P11802); assay: Cyclin-dependent kinase 4 Assay; format: biochemical; conditions: cdk4/cyclin D1, GST-Rb substrate, 10 μM ATP, 30 min at 37° C.; read-out: CDK4 Inhibition IC50
T1 construct: made in house; host or cells: Sf9 insect cells (Bac-to-Bac baculovirus, pFastBac)
T1 sequence (P11802 whole entry): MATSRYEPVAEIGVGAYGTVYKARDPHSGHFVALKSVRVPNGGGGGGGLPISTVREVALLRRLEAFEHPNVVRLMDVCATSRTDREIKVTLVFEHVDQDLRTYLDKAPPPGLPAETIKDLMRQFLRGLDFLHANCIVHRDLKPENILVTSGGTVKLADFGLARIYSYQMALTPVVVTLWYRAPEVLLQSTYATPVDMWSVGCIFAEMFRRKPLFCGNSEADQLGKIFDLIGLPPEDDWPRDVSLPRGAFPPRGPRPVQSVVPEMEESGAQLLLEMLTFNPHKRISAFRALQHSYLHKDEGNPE
T1 sequence (P24385 whole entry partner): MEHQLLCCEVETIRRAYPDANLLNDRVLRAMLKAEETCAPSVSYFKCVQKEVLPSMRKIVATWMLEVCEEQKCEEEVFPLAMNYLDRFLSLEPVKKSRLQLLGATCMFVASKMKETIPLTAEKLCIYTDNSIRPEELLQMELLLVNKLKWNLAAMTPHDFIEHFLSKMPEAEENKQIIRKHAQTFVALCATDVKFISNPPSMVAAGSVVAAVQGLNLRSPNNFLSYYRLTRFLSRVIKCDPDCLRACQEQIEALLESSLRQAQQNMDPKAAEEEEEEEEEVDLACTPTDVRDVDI
Procedure, shortened: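 Insect-cell lysate of coexpressed human cdk4/cyclin D1 (0.1 μg) phosphorylated bead-bound GST-Rb (0.5 μg) in 50 mM HEPES pH 7.5, 10 mM MgCl2, 1 mM EGTA for 30 min at 37 °C. Filters were washed with TNEN and scintillation-counted; IC50 values derived.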

[2] = system: DU 145; assay: In vitro tumor cell proliferation, DU 145; format: cell-based, human; conditions: read-out: In vitro Tumor Cell Proliferation (IC50, μM) Prostate DUI45
Procedure, shortened: (§1)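 Viable (trypan blue-excluding) cells plated and left overnight at 37° C, then exposed to drug for 3 days, refed with fresh drug-containing medium for 4 more days. TCA-fixed cells stained with 0.4% sulforhodamine B; alternatively, CyQUANT read after 3 days of drug and freezing at −80° C.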

[3] = system: PC-3; assay: In vitro tumor cell proliferation, PC-3; format: cell-based, human; conditions: read-out: In vitro Tumor Cell Proliferation (IC50, μM) Prostate PC-3
Procedure, shortened: as §1

[4] = system: DMS-114; assay: In vitro tumor cell proliferation, DMS-114; format: cell-based, human; conditions: read-out: In vitro Tumor Cell Proliferation (IC50, μM) Lung DMS-114
Procedure, shortened: as §1

[5] = system: HT-29; assay: In vitro tumor cell proliferation, HT-29; format: cell-based, human; conditions: read-out: In vitro Tumor Cell Proliferation (IC50, μM) Colon HT-29 (converted)
Procedure, shortened: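 HT-29 human colon adenocarcinoma cells plated overnight at 37° C., then exposed to drug for 3 days, medium with fresh drug replaced for a further 4 days. Cells fixed with 10% TCA and stained with 0.4% sulforhodamine B; alternatively, CyQUANT read after 3 days of drug exposure.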

[6] = system: A549; assay: In vitro tumor cell proliferation, A549; format: cell-based, human; conditions: read-out: In vitro Tumor Cell Proliferation (IC50, μM) Lung A549
Procedure, shortened: as §1

[7] = target: T2, cdk2/cyclin E (Homo sapiens, UniProt P24941); assay: Cyclin-Dependent Kinase 2 Assay (cdk-2 inhibition); format: biochemical; conditions: GST-Rb substrate, 30 min at 30° C.
T2 construct: made in house; host or cells: insect cells (baculovirus co-infection)
Procedure, shortened: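 GST-Rb bound to glutathione-Sepharose beads (0.5 μg/well) as substrate in 50 mM HEPES pH 7.5, 10 mM MgCl2, 1 mM EGTA. Recombinant cdk2/cyclin E at 0.1 μg per 100 μl, 30 min at 30 °C. Reaction stopped by filtration, TNEN washes, scintillation counting.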

[8] = system: MDA-MB-231; assay: In vitro tumor cell proliferation, MDA-MB-231; format: cell-based, human; conditions: read-out: In vitro Tumor Cell Proliferation (IC50, μM) Breast MDA-MB-231
Procedure, shortened: as §1

[9] = system: Colo-205; assay: In vitro tumor cell proliferation, Colo-205; format: cell-based, human; conditions: read-out: In vitro Tumor Cell Proliferation (IC50, μM) Colon Colo-205
Procedure, shortened: as §1

[10] = system: MDA-MB-435; assay: In vitro tumor cell proliferation, MDA-MB-435; format: cell-based, human; conditions: read-out: In vitro Tumor Cell Proliferation (IC50, μM) Breast MDA-MB-435
Procedure, shortened: as §1

[11] = Homo sapiens, DU-145, values marked * (mark not explained)
[12] = Homo sapiens, PC-3, values marked * (mark not explained)
[13] = Homo sapiens, DMS-114, values marked * (mark not explained)
[14] = values marked * (mark not explained), dihydrochloride
[15] = Homo sapiens, HT-29, values marked * (mark not explained)
[16] = Homo sapiens, A549, values marked * (mark not explained)
[17] = Homo sapiens, MDA-MB-231, values marked * (mark not explained)
[18] = Homo sapiens, COLO 205, values marked * (mark not explained)
[19] = Homo sapiens, MDA-MB-435, values marked * (mark not explained)

Row | Compound | IC50 [1] | IC50 [2, 11] [µM] | IC50 [3, 12] [µM] | IC50 [4, 13] [µM] | IC50 [4, 14] [µM] | IC50 [5, 15] [µM] | IC50 [5, 14] [µM] | IC50 [6, 16] [µM] | IC50 [6, 14] [µM] | IC50 [7] | IC50 [8, 17] [µM] | IC50 [8, 14] [µM] | IC50 [9, 18] [µM] | IC50 [9, 14] [µM] | IC50 [10, 19] [µM] | IC50 [10, 14] [µM] | IC50 [2, 14] [µM] | IC50 [3, 14] [µM]
1 | CCCCCCCCNc1nc(N[C@H]2CC[C@H](N)CC2)nc2c1ncn2C1CCCC1 [Example 20, 2-[Trans-(4-aminocyclohexyl)amino]-6-(octylamino)-9-cyclopentylpurine dihydrochloride] | 2400 nM | 2.4 | 1.7 | 1.1 | 0.95 | 1.9 | 1.7 | 1.7 | 1 | 330 nM and 310 nM and 460 nM | 2.7 | 1.9 | 1.9 | 1.4 | 2.3 | 1.8 | 1.9 | 1.8
2 | N[C@H]1CC[C@H](Nc2nc(NCCCCc3ccccc3)c3ncn(C4CCCC4)c3n2)CC1 [Example 21, 2-[Trans-(4-aminocyclohexyl)amino]-6-(4-phenylbutylamino)-9-cyclopentylpurine dihydrochloride] | 1000 nM | 0.4 | 0.6 | 0.7 | 0.6 | 0.7 | 0.8 | 0.5 |  | 39 nM and 91 nM | 0.8 | 0.9 | 0.51 | 0.78 | 1.3 | 1.2 | 0.7 | 0.8
3 | CCCCNc1nc(N[C@H]2CC[C@H](N)CC2)nc2c1ncn2C(C)C [Example 37, 2-[Trans-(4-aminocyclohexyl)amino]-6-[(butyl)amino]-9-(2-propyl)purine dihydrochloride] | 7000 nM | > 20 | 11 | 9.7 | 8 | 19 |  |  | 8.3 | 240 nM | 24 |  |  | 11 | 19 | 16 | 10 | 
4 | CCCCCCNc1nc(N[C@H]2CC[C@H](N)CC2)nc2c1ncn2C1CCCC1 [Example 41, 2-[Trans-(4-aminocyclohexyl)amino]-6-(hexylamino)-9-cyclopentylpurine dihydrochloride] | 820 nM and 1900 nM | 1.1 | 1.5 | 0.9 |  | 1.6 |  | 1.1 |  | 200 nM | 1.7 |  | 1.7 |  | 2.6 |  |  | 
5 | CCCNc1nc(N[C@H]2CC[C@H](N)CC2)nc2c1ncn2C1CCCC1 [Example 44, 2-[Trans-(4-aminocyclohexyl)amino]-6-(propylamino)-9-cyclopentylpurine dihydrochloride] | 250 nM and 370 nM and 160 nM | 0.5 | 0.52 | 0.44 | 0.53 | 0.69 | 0.65 | 0.63 | 0.47 | 9 nM and 11 nM | 0.8 | 0.6 | 0.58 | 0.4 | 0.85 |  | 0.6 | 0.47
6 | N[C@H]1CC[C@H](Nc2nc(NCCc3ccc(O)cc3)c3ncn(C4CCCC4)c3n2)CC1 [Example 55, 2-[Trans-(4-aminocyclohexyl)amino]-6-[(4-hydroxyphenyl)ethylamino]-9-cyclopentylpurine. dihydrochloride] | 2100 nM and 1100 nM and 700 nM | 6.7 | 4.2 | 7 | 4.8 | 7 | 6.1 | 7.3 | 6.4 | 89 nM | 5.2 | 5.6 | 4.3 | 4.2 | 6.7 | 7.2 | 7.2 | 4

Further compounds by falling IC50 [2, 11], results first:

Row | IC50 [1] | IC50 [2, 11] [µM] | IC50 [3, 12] [µM] | IC50 [4, 13] [µM] | IC50 [4, 14] [µM] | IC50 [5, 15] [µM] | IC50 [5, 14] [µM] | IC50 [6, 16] [µM] | IC50 [6, 14] [µM] | IC50 [7] | IC50 [8, 17] [µM] | IC50 [8, 14] [µM] | IC50 [9, 18] [µM] | IC50 [9, 14] [µM] | IC50 [10, 19] [µM] | IC50 [10, 14] [µM] | IC50 [2, 14] [µM] | IC50 [3, 14] [µM] | Compound
7 | 110 nM | 3.9 | 1.8 | 6.6 | 4.5 | 5.6 | 6.2 | 6.1 | 5.5 | 21 nM | 3.4 | 5.4 | 2.4 | 2.3 | 6 |  | 4.6 | 2.3 | N[C@H]1CC[C@H](Nc2nc(NCCCCCO)c3ncn(C4CCCC4)c3n2)CC1 [Example 25, 2-[Trans-(4-aminocyclohexyl)amino]-6-[5-(hydroxy)pentylamino]-9-cyclopentylpurine dihydrochloride]
8 | 2200 nM and 1600 nM | 3.7 | 3 | 3 | 2.7 | 5.6 | 5.4 | 2.7 | 2.5 | 253 nM | 4.2 | 5.6 | 3.4 | 3.2 | 9.5 | 8 | 3.2 | 4.4 | N[C@H]1CC[C@H](Nc2nc(NNCCc3ccccc3)c3ncn(C4CCCC4)c3n2)CC1 [Example 35, 2-[Trans-(4-aminocyclohexyl)amino]-6-[2-phenethylhydrazino]-9-cyclopentylpurine dihydrochloride]
9 | 300 nM and 500 nM | 1.6 | 1.7 | 1.9 | 1.7 | 2.4 | 2.6 | 1.8 | 1.6 | 69 nM and 46 nM | 2.4 | 3 | 2.2 | 3 | 3.2 | 3.7 |  |  | N[C@H]1CC[C@H](Nc2nc(NCc3cccs3)c3ncn(C4CCCC4)c3n2)CC1 [Example 17, 2-[Trans-(4-aminocyclohexyl)amino]-6-(2-thiophenemethylamino)-9-cyclopentylpurine dihydrochloride]
